For one data set, the system named is RPMI 8226. The data set can be described thus: Inhibition of proliferation of RPMI 8226 cells. The settings on record: RPMI cells in vitro. The class given is cell-based, human. From the text: The next set of experiments was designed to assess compounds that have low levels of brain penetration for the ability of the test compounds to inhibit cellular proliferation. An exemplary in vitro assay is to screen for the ability of the test compounds to inhibit proliferation of the B-cell neoplastic cell line RPMI 8226 (a plasmacytoma derived from a multiple myeloma patient (Matsuoka, et al., 1967, Proc. Soc. Exp. Biol. Med. 125: 1246-1250). However other cell line can be used such as, U266 (established from an IgE-secreting myeloma patient (Nilsson, et al., 1970, Clin. Exp. Immunol., 7: 477-489) and ARH77 (an EBV transformed plasma cell leukemia (Burk, et al., 1978, Cancer Res. 38: 2508-2513).
FIG. 1 is a graph depicting the effects on the test compounds on RPMI cell viability.

A further data set concerns MPR1-MDCK. The data set can be described thus: MPR1-MDCK permeability, potential to cross the blood-brain barrier. The class given is in vitro ADME. The settings on record: for % Recovery A-B / Papp A-B: A-B direction; for % Recovery B-A / Papp B-A: B-A direction; for Efflux: efflux ratio; for Brain Penetration Classification: from A-B Papp and efflux ratio. From the text:
A criterion for selecting an agent for proceeding to clinical trials is whether the compound crosses the blood-brain barrier. […] Fluphenazine (ICI-01175) is used as a control compound that has the potential to cross the blood-brain barrier. Table 1 summarizes the results of the test compounds for their potential to cross the blood-brain barrier.

Take `CNCC(=O)NCCN1CCC(CCCN2c3ccccc3Sc3ccc(C(F)(F)F)cc32)CC1` [ICI-00849]: in the data set on RPMI 8226, the “ability to inhibit proliferation of RPMI cells” value (from here on “ability to inhibit proliferation”) is recorded as “able to inhibit”. For the same molecule, in the data set on MPR1-MDCK, the “% Recovery A-B” value came to 11%, the “Papp A-B” value was below 10 nm/s, the “% Recovery B-A” value was determined as 26% and the “Papp B-A” value worked out at 51 nm/s. For the same molecule, in the data set on MPR1-MDCK, the Efflux is recorded as above 5.1; the “Brain Penetration Classification” value is “Low (A-B Papp > 3.0 and Efflux Ratio > 10: Low)”.

Take `CNCC(=O)NCCCN1CCC(CCCN2c3ccccc3Sc3ccc(C(F)(F)F)cc32)CC1` [ICI-01259]: the “ability to inhibit proliferation” value with RPMI 8226 is given as “able to inhibit”. Further, in the data set with MPR1-MDCK, the “% Recovery A-B” value stood at 29%, the “Papp A-B” value was below 2.9 nm/s, the “% Recovery B-A” value is reported as 39% and the “Papp B-A” value came to 125 nm/s. In the data set with MPR1-MDCK, the Efflux was above 43; the “Brain Penetration Classification” value is “Low (A-B Papp > 3.0 and Efflux Ratio > 10: Low)”.

As for `CN(C)S(=O)(=O)c1ccc2c(c1)N(CCCN1CCN(CCN)CC1)c1ccccc1S2` [ICI-00715], the “ability to inhibit proliferation” value in the data set on RPMI 8226 was “able to inhibit”. For the same molecule, in the data set on MPR1-MDCK, the “% Recovery A-B” value is 85%, the “Papp A-B” value came to 0.8 nm/s, the “% Recovery B-A” value is on record as 77% and the “Papp B-A” value was 123 nm/s. Further, in the data set on MPR1-MDCK, the Efflux is listed as 154; the “Brain Penetration Classification” value was “Low (A-B Papp > 3.0 and Efflux Ratio > 10: Low)”.

These data come from patent US20100130457A1, “Phenothiazine Derivatives for Treatment of Asthma” (Immune Control, Inc., priority 2008, published 2010).
